Experimental data reported in patent US7880021B2, “Compounds and kits for the detection and the quantification of cell apoptosis” (Centre National de la Recherche Scientifique (CNRS), priority 2005, dated 2011).

Test system: T lymphoblastoid cells
Experiment: Flow cytometry analysis with annexin V-FITC, PI and F2N12S
Assay type: cell-based, human
From the text: FIG. 6: Flow cytometry analysis of T lymphoblastoid cells treated by actinomycin D. Cells were stained by annexin V-FITC, PI and F2N12S. In (a), Annexin V-FITC and PI were selectively excited at 488 nm. Cells are sorted into living, dead and apoptotic cell populations. In (b), F2N12S is selectively excited at 407 nm. Living cells are discriminated from apoptotic and necrotic cells. In (c), the PI fluorescence intensities are plotted versus the T*/N* ratio of F2N12S. Living cells are in green, apoptotic cells are in cyan and dead cells are in orange. In (d), the populations sorted using the F2N12S/PI couple were colored according to their response with the annexin V/PI couple. The wavelengths of maximal transmission and bandwidths of used filters are indicated in brackets.
FIG. 7: Comparison of the intensiometric response of annexin V-FITC (a) with the ratiometric fluorescence response of F2N12S (b). Living, dead and apoptotic cells were identified as described in FIG. 6, by using either the annexin V-FITC/PI (a) or the F2N12S/PI (b) couple of dyes.
FIG. 8: Comparison of the response of annexin V-FITC and F2N12S on non-treated T lymphoblastoid cells stained by annexin V-FITC, PI and F2N12S. In (a), annexin V-FITC and PI were selectively excited at 488 nm. In (b), F2N12S is selectively excited at 407 nm. Cells are sorted into living and dead cell populations.
Human lymphoid CEM T cells were cultured in X-vivo 15 medium (Cambrex, France) at 37° C. in humidified 5% CO2 atmosphere. Cell viability was checked by trypan blue exclusion. Cells were seeded at 5×10^5 cells/ml in the presence or absence of actinomycin D (0.5 μg/ml) for 18 h. Cells were pelleted by centrifugation at 1500 rpm for 5 min and resuspended at 1×10^6 cells/ml in X-vivo 15 medium for experiments.
For the validation of F2N12S in cell cytometry, we used a FASCARIA™ (cell sorter) (BD Biosciences, CA, USA) equipped with an argon laser (488 nm) and a diode laser (407 nm) and emission filters DF30, DF42 and DF20 centered at 530 nm, 585 nm and 610 nm, respectively. The optical pathways corresponding to the argon laser and to the diode laser are independent. Data were analyzed using the FACSDIVA™ (cell sorter) Software (BD Biosciences). The granulation, size and fluorescence intensity were recorded at a rate of ˜1000 cells per second.
T lymphoblastoid cells were treated with actinomycin D and labeled simultaneously by FITC-labeled annexin V, propidium iodide (PI) and F2N12S. […] The emissions of FITC and PI were collected in the spectral regions of 515-545 nm and 600-620 nm, respectively. […] The emission light in this case was collected in two spectral regions: at 515-545 nm to monitor the emission of the N* band and 564-606 nm to collect the emission of the T* band (FIG. 6b). […] The second one is characterized by a high N*/T* intensity ratio (shown in red) and can be assigned to apoptotic and dead cells.
The probe of the invention F2N12S has been combined with PI and the fluorescence intensities of PI have been represented as a function of the T*/N* ratio of F2N12S (FIG. 6c). In this case, the populations of apoptotic and dead cells are clearly discriminated by using the differences in the PI intensities. […] This conclusion was further strengthened when the populations discriminated by the F2N12S/PI couple were colored according to their response with the annexin V-FITC/PI couple (FIG. 6d).

[1] = actinomycin D-treated cells, probe combined with PI

1-dodecanaminium, N-[[2-[4-Diethylaminophenyl]-3-hydroxychromon-6-yl]-methyl]-N-methyl-N-(3-sulfopropyl)-, inner salt [F2N12S]
percentage of apoptotic cells [1]: 19.5%
percentage of dead cells [1]: 48%
percentage of living cells [1]: 32.5%
percentage of dead cells (non-treated T lymphoblastoid cells): 5%
